pEC50: −log10 of the molar value.
How the values were obtained:
[1] = system: mouse model of multiple sclerosis; details: in vivo administration; cited from earlier work
[2] = system: SK-N-SH human neuroblastoma cells; assay: Serum Deprivation/JC-1 Mitochondrial Membrane Potential (MMP) Assay; assay type: cell-based; details: Homo sapiens; for activation at 3 µM: single dose 3 μM, JC-1 ratio normalized to peak value for 10 μM dimebolin (n=2-4), read-out: JC-1 max % (@ 3 μM); for activation at 3 µM / Emax: serum deprivation; for pEC50 / Emax: SK-N-SH; for pEC50: 18 h, serum deprivation ~18 hours, JC-1 ratio normalized to peak value for 10 μM dimebolin, single curve fit to mean data of n=2-3; for Emax: percent maximal intensity in JC-1 ratio normalized to peak value for 10 μM dimebolin, read-out: JC-1 max %
In short: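 SK-N-SH cells serum-deprived ~18 h with compound, then stained with JC-1 for 40 min at 37 °C; red (560/595 nm) to green (485/535 nm) ratio reports membrane potential. Response normalized to peak from 10 μM dimebolin; EC50 from fit to mean of n=2–3, or single-dose 3 μM; DMSO ≤1%.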

[3] = system: patients with mild-to-moderate Alzheimer's disease; details: 20 mg three times a day (60 mg/day); cited from earlier work

SMILES	activation at 3 µM [2] [%]	pEC50 [2]	Emax [2] [%]	further results
O=C1C=C(c2ccccc2)C(=O)N1c1cccc(Cl)c1 [1-(3-chlorophenyl)-3-phenyl-pyrrole-2,5-dione]				development of the disease [1]: significantly prevented the development of the disease
COCCN(C)C(=O)N1Cc2ccccc2N2CCN(Cc3ccccc3)CC2C1 (stereo not drawn) [Example 149, 3-benzyl-N-(2-methoxyethyl)-N-methyl-1,2,3,4,4a,5-hexahydropyrazino[1,2-a][1,4]benzodiazepine-6(7H)-carboxamide]	218			
O=C(NCCc1cccnc1)N1Cc2ccccc2N2CCN(Cc3ccccc3)CC2C1 (stereo not drawn) [Example 150, 3-benzyl-N-[2-(pyridin-3-yl)ethyl]-1,2,3,4,4a,5-hexahydropyrazino[1,2-a][1,4]benzodiazepine-6(7H)-carboxamide]	212			
O=C(NCCc1ccccn1)N1Cc2ccccc2N2CCN(Cc3ccccc3)CC2C1 (stereo not drawn) [Example 151, 3-benzyl-N-[2-(pyridin-2-yl)ethyl]-1,2,3,4,4a,5-hexahydropyrazino[1,2-a][1,4]benzodiazepine-6(7H)-carboxamide]		5.74	163	
O=C(NCCc1ccncc1)N1Cc2ccccc2N2CCN(Cc3ccccc3)CC2C1 (stereo not drawn) [Example 152, 3-benzyl-N-[2-(pyridin-4-yl)ethyl]-1,2,3,4,4a,5-hexahydropyrazino[1,2-a][1,4]benzodiazepine-6(7H)-carboxamide]		5.51	239	
N#CCCN(C(=O)N1Cc2ccccc2N2CCN(Cc3ccccc3)CC2C1)C1CC1 (stereo not drawn) [Example 153, 3-benzyl-N-(2-cyanoethyl)-N-cyclopropyl-1,2,3,4,4a,5-hexahydropyrazino[1,2-a][1,4]benzodiazepine-6(7H)-carboxamide]	68			
NCCc1cn(C(=O)N2Cc3ccccc3N3CCN(Cc4ccccc4)CC3C2)cn1 (stereo not drawn) [Example 154, [4-(2-aminoethyl)-1H-imidazol-1-yl](3-benzyl-1,2,3,4,4a,5-hexahydropyrazino[1,2-a][1,4]benzodiazepin-6(7H)-yl)methanone]	49			
O=C(NCc1ccncc1)N1Cc2ccccc2N2CCN(Cc3ccccc3)CC2C1 (stereo not drawn) [Example 155, 3-benzyl-N-(pyridin-4-ylmethyl)-1,2,3,4,4a,5-hexahydropyrazino[1,2-a][1,4]benzodiazepine-6(7H)-carboxamide]	75			
Cc1ccc(CNC(=O)N2Cc3ccccc3N3CCN(Cc4ccccc4)CC3C2)o1 (stereo not drawn) [Example 156, 3-benzyl-N-[(5-methyl-2-furyl)methyl]-1,2,3,4,4a,5-hexahydropyrazino[1,2-a][1,4]benzodiazepine-6(7H)-carboxamide]		5.62	152	
CCN(CCOC)C(=O)N1Cc2ccccc2N2CCN(Cc3ccccc3)CC2C1 (stereo not drawn) [Example 157, 3-benzyl-N-ethyl-N-(2-methoxyethyl)-1,2,3,4,4a,5-hexahydropyrazino[1,2-a][1,4]benzodiazepine-6(7H)-carboxamide]	264			
CCN(CC)C(=O)N1Cc2ccccc2N2CCN(Cc3ccccc3)CC2C1 (stereo not drawn) [Example 158, 3-benzyl-N,N-diethyl-1,2,3,4,4a,5-hexahydropyrazino[1,2-a][1,4]benzodiazepine-6(7H)-carboxamide]		5.99	181	
O=C(Nc1nccs1)N1Cc2ccccc2N2CCN(Cc3ccccc3)CC2C1 (stereo not drawn) [Example 159, 3-benzyl-N-(1,3-thiazol-2-yl)-1,2,3,4,4a,5-hexahydropyrazino[1,2-a][1,4]benzodiazepine-6(7H)-carboxamide]	64			
O=C(NCC1CC1)N1Cc2ccccc2N2CCN(Cc3ccccc3)CC2C1 (stereo not drawn) [Example 160, 3-benzyl-N-(cyclopropylmethyl)-1,2,3,4,4a,5-hexahydropyrazino[1,2-a][1,4]benzodiazepine-6(7H)-carboxamide]		6.19	245	
CC(C)N1CCN(C(=O)N2Cc3ccccc3N3CCN(Cc4ccccc4)CC3C2)CC1 (stereo not drawn) [Example 161, (3-benzyl-1,2,3,4,4a,5-hexahydropyrazino[1,2-a][1,4]benzodiazepin-6(7H)-yl)(4-isopropylpiperazin-1-yl)methanone]		5.50	218	
CC(C)CNC(=O)N1Cc2ccccc2N2CCN(Cc3ccccc3)CC2C1 (stereo not drawn) [Example 162, 3-benzyl-N-isobutyl-1,2,3,4,4a,5-hexahydropyrazino[1,2-a][1,4]benzodiazepine-6(7H)-carboxamide]	194			
O=C(NCc1cccnc1)N1Cc2ccccc2N2CCN(Cc3ccccc3)CC2C1 (stereo not drawn) [Example 163, 3-benzyl-N-(pyridin-3-ylmethyl)-1,2,3,4,4a,5-hexahydropyrazino[1,2-a][1,4]benzodiazepine-6(7H)-carboxamide]	183			
CN(C)CCCNC(=O)N1Cc2ccccc2N2CCN(Cc3ccccc3)CC2C1 (stereo not drawn) [Example 164, 3-benzyl-N-[3-(dimethylamino)propyl]-1,2,3,4,4a,5-hexahydropyrazino[1,2-a][1,4]benzodiazepine-6(7H)-carboxamide]	93			
CCCCN(CC#N)C(=O)N1Cc2ccccc2N2CCN(Cc3ccccc3)CC2C1 (stereo not drawn) [Example 165, 3-benzyl-N-butyl-N-(cyanomethyl)-1,2,3,4,4a,5-hexahydropyrazino[1,2-a][1,4]benzodiazepine-6(7H)-carboxamide]	251			
COCCCNC(=O)N1Cc2ccccc2N2CCN(Cc3ccccc3)CC2C1 (stereo not drawn) [Example 166, 3-benzyl-N-(3-methoxypropyl)-1,2,3,4,4a,5-hexahydropyrazino[1,2-a][1,4]benzodiazepine-6(7H)-carboxamide]		6.12	181	
COCCNC(=O)N1Cc2ccccc2N2CCN(Cc3ccccc3)CC2C1 (stereo not drawn) [Example 167, 3-benzyl-N-(2-methoxyethyl)-1,2,3,4,4a,5-hexahydropyrazino[1,2-a][1,4]benzodiazepine-6(7H)-carboxamide]	63			
O=C(NCc1ccccn1)N1Cc2ccccc2N2CCN(Cc3ccccc3)CC2C1 (stereo not drawn) [Example 168, 3-benzyl-N-(pyridin-2-ylmethyl)-1,2,3,4,4a,5-hexahydropyrazino[1,2-a][1,4]benzodiazepine-6(7H)-carboxamide]	259			
O=C(NC1CCC1)N1Cc2ccccc2N2CCN(Cc3ccccc3)CC2C1 (stereo not drawn) [Example 169, 3-benzyl-N-cyclobutyl-1,2,3,4,4a,5-hexahydropyrazino[1,2-a][1,4]benzodiazepine-6(7H)-carboxamide]		6.09	173	
CCCN(C)C(=O)N1Cc2ccccc2N2CCN(Cc3ccccc3)CC2C1 (stereo not drawn) [Example 170, 3-benzyl-N-methyl-N-propyl-1,2,3,4,4a,5-hexahydropyrazino[1,2-a][1,4]benzodiazepine-6(7H)-carboxamide]	273			
O=C(N1CCCCC1)N1Cc2ccccc2N2CCN(Cc3ccccc3)CC2C1 (stereo not drawn) [Example 171, (3-benzyl-1,2,3,4,4a,5-hexahydropyrazino[1,2-a][1,4]benzodiazepin-6(7H)-yl)(piperidin-1-yl)methanone]		5.61	251	
O=C1C2CNCCN2c2ccccc2CN1CC1CC1 (stereo not drawn) [Example 172, 6-(cyclopropylmethyl)-2,3,4,4a,6,7-hexahydropyrazino[1,2-a][1,4]benzodiazepin-5(1H)-one]	0			
CN1CCN2c3ccccc3CN(C3CCN(C(=O)c4ccccc4)CC3)CC2C1 (stereo not drawn) [Example 173, [4-(3-methyl-1,2,3,4,4a,5-hexahydropyrazino[1,2-a][1,4]benzodiazepin-6(7H)-yl)piperidin-1-yl](phenyl)methanone]	68			
CN1CCN2c3ccccc3CN(C(=O)c3ccccc3Cl)CC2C1 (stereo not drawn) [Example 174, (2-chlorophenyl)(3-methyl-1,2,3,4,4a,5-hexahydropyrazino[1,2-a][1,4]benzodiazepin-6(7H)-yl)methanone]	41			
CN1CCN2c3ccccc3CN(C(=O)c3cccc(Cl)c3)CC2C1 (stereo not drawn) [Example 175, (3-chlorophenyl)(3-methyl-1,2,3,4,4a,5-hexahydropyrazino[1,2-a][1,4]benzodiazepin-6(7H)-yl)methanone]	40			
CN1CCN2c3ccccc3CN(C(=O)c3ccc(Cl)cc3)CC2C1 (stereo not drawn) [Example 176, (4-chlorophenyl)(3-methyl-1,2,3,4,4a,5-hexahydropyrazino[1,2-a][1,4]benzodiazepin-6(7H)-yl)methanone]	40			
Cc1ccc2c(c1)c1c(n2CCc2ccc(C)nc2)CCN(C)C1 [dimebolin]				clinical course of disease (ADAS-Cog, improvement over baseline) [3]: significant improvement in the clinical course of disease

Reference: patent US9133206B2, “Benzodiazepine and pyridodiazepine derivatives” (AbbVie Inc., priority 2010, dated 2015)
